Laboratory results reported in the NIST ThermoML archive (doi:10.1021/je800251v).

Settings: Liquid

CCCCC(=O)OCC [ethyl pentanoate]
Settings	mass density [kg/m3]
298.15 K, 100 kPa	870.7
298.15 K, 1000 kPa	871.5
298.15 K, 2000 kPa	872.4
298.15 K, 2780 kPa	873
298.15 K, 3000 kPa	873.2
298.15 K, 5000 kPa	875.1
298.15 K, 10000 kPa	879.4
298.15 K, 15000 kPa	883.4
298.15 K, 20000 kPa	887.3
298.15 K, 25000 kPa	891
298.15 K, 30000 kPa	894.6
298.15 K, 35000 kPa	898.1
303.15 K, 100 kPa	865.5
303.15 K, 1000 kPa	866.4
303.15 K, 2000 kPa	867.4
303.15 K, 2780 kPa	868.1
303.15 K, 3000 kPa	868.3
303.15 K, 5000 kPa	870.1
303.15 K, 10000 kPa	874.5
303.15 K, 15000 kPa	878.7
303.15 K, 20000 kPa	882.6
303.15 K, 25000 kPa	886.5
303.15 K, 30000 kPa	890.2
303.15 K, 35000 kPa	893.8
308.15 K, 100 kPa	860.3
308.15 K, 1000 kPa	861.2
308.15 K, 2000 kPa	862.1
308.15 K, 2780 kPa	862.9
308.15 K, 3000 kPa	863.1
308.15 K, 5000 kPa	865
308.15 K, 10000 kPa	869.5
308.15 K, 15000 kPa	873.8
308.15 K, 20000 kPa	877.8
308.15 K, 25000 kPa	881.8
308.15 K, 30000 kPa	885.6
308.15 K, 35000 kPa	889.2
313.15 K, 100 kPa	855
313.15 K, 1000 kPa	855.9
313.15 K, 2000 kPa	856.9
313.15 K, 2780 kPa	857.7
313.15 K, 3000 kPa	857.9
313.15 K, 5000 kPa	859.9
313.15 K, 10000 kPa	864.5
313.15 K, 15000 kPa	868.9
313.15 K, 20000 kPa	873
313.15 K, 25000 kPa	877
313.15 K, 30000 kPa	880.9
313.15 K, 35000 kPa	884.6
318.15 K, 100 kPa	849.8
318.15 K, 1000 kPa	850.6
318.15 K, 2000 kPa	851.7
318.15 K, 2780 kPa	852.4
318.15 K, 3000 kPa	852.7
318.15 K, 5000 kPa	854.6
318.15 K, 10000 kPa	859.4
318.15 K, 15000 kPa	863.9
318.15 K, 20000 kPa	868.2
318.15 K, 25000 kPa	872.3
318.15 K, 30000 kPa	876.3
318.15 K, 35000 kPa	880.1
323.15 K, 100 kPa	844.4
323.15 K, 1000 kPa	845.3
323.15 K, 2000 kPa	846.4
323.15 K, 2780 kPa	847.2
323.15 K, 3000 kPa	847.4
323.15 K, 5000 kPa	849.4
323.15 K, 10000 kPa	854.3
323.15 K, 15000 kPa	859
323.15 K, 20000 kPa	863.4
323.15 K, 25000 kPa	867.6
323.15 K, 30000 kPa	871.7
323.15 K, 35000 kPa	875.5
328.15 K, 100 kPa	839.1
328.15 K, 1000 kPa	840
328.15 K, 2000 kPa	841.1
328.15 K, 2780 kPa	842
328.15 K, 3000 kPa	842.3
328.15 K, 5000 kPa	844.4
328.15 K, 10000 kPa	849.4
328.15 K, 15000 kPa	854.2
328.15 K, 20000 kPa	858.7
328.15 K, 25000 kPa	863
328.15 K, 30000 kPa	867.1
328.15 K, 35000 kPa	871.1
333.15 K, 100 kPa	833.7
333.15 K, 1000 kPa	834.7
333.15 K, 2000 kPa	836
333.15 K, 2780 kPa	836.9
333.15 K, 3000 kPa	837.1
333.15 K, 5000 kPa	839.3
333.15 K, 10000 kPa	844.5
333.15 K, 15000 kPa	849.5
333.15 K, 20000 kPa	854.1
333.15 K, 25000 kPa	858.6
333.15 K, 30000 kPa	862.9
333.15 K, 35000 kPa	867
338.15 K, 100 kPa	828.4
338.15 K, 1000 kPa	829.5
338.15 K, 2000 kPa	830.7
338.15 K, 2780 kPa	831.5
338.15 K, 3000 kPa	831.8
338.15 K, 5000 kPa	834
338.15 K, 10000 kPa	839.4
338.15 K, 15000 kPa	844.5
338.15 K, 20000 kPa	849.3
338.15 K, 25000 kPa	853.9
338.15 K, 30000 kPa	858.2
338.15 K, 35000 kPa	862.4
343.15 K, 100 kPa	823
343.15 K, 1000 kPa	824.1
343.15 K, 2000 kPa	825.3
343.15 K, 2780 kPa	826.2
343.15 K, 3000 kPa	826.5
343.15 K, 5000 kPa	828.8
343.15 K, 10000 kPa	834.4
343.15 K, 15000 kPa	839.6
343.15 K, 20000 kPa	844.5
343.15 K, 25000 kPa	849.2
343.15 K, 30000 kPa	853.7
343.15 K, 35000 kPa	858
348.15 K, 100 kPa	817.7
348.15 K, 1000 kPa	818.7
348.15 K, 2000 kPa	820
348.15 K, 2780 kPa	821
348.15 K, 3000 kPa	821.3
348.15 K, 5000 kPa	823.7
348.15 K, 10000 kPa	829.4
348.15 K, 15000 kPa	834.8
348.15 K, 20000 kPa	839.9
348.15 K, 25000 kPa	844.7
348.15 K, 30000 kPa	849.3
348.15 K, 35000 kPa	853.6
353.15 K, 100 kPa	812.2
353.15 K, 1000 kPa	813.3
353.15 K, 2000 kPa	814.6
353.15 K, 2780 kPa	815.6
353.15 K, 3000 kPa	815.9
353.15 K, 5000 kPa	818.4
353.15 K, 10000 kPa	824.3
353.15 K, 15000 kPa	829.9
353.15 K, 20000 kPa	835.1
353.15 K, 25000 kPa	840
353.15 K, 30000 kPa	844.7
353.15 K, 35000 kPa	849.1
363.15 K, 100 kPa	801.2
363.15 K, 1000 kPa	802.5
363.15 K, 2000 kPa	803.9
363.15 K, 2780 kPa	805
363.15 K, 3000 kPa	805.5
363.15 K, 5000 kPa	808.1
363.15 K, 10000 kPa	814.6
363.15 K, 15000 kPa	820.5
363.15 K, 20000 kPa	826
363.15 K, 25000 kPa	831.2
363.15 K, 30000 kPa	836
363.15 K, 35000 kPa	840.8
373.15 K, 100 kPa	790.7
373.15 K, 1000 kPa	792
373.15 K, 2000 kPa	793.5
373.15 K, 2780 kPa	794.7
373.15 K, 3000 kPa	795
373.15 K, 5000 kPa	797.9
373.15 K, 10000 kPa	804.8
373.15 K, 15000 kPa	810.9
373.15 K, 20000 kPa	816.7
373.15 K, 25000 kPa	822.2
373.15 K, 30000 kPa	827.3
373.15 K, 35000 kPa	832.3
383.15 K, 100 kPa	779.9
383.15 K, 1000 kPa	781.3
383.15 K, 2000 kPa	783
383.15 K, 2780 kPa	784.2
383.15 K, 3000 kPa	784.5
383.15 K, 5000 kPa	787.6
383.15 K, 10000 kPa	795
383.15 K, 15000 kPa	801.5
383.15 K, 20000 kPa	807.6
383.15 K, 25000 kPa	813.4
383.15 K, 30000 kPa	818.9
383.15 K, 35000 kPa	824
393.15 K, 100 kPa	769
393.15 K, 1000 kPa	770.5
393.15 K, 2000 kPa	772.3
393.15 K, 2780 kPa	773.6
393.15 K, 3000 kPa	774.1
393.15 K, 5000 kPa	777.4
393.15 K, 10000 kPa	785.1
393.15 K, 15000 kPa	791.6
393.15 K, 20000 kPa	797.7
393.15 K, 25000 kPa	803.5
393.15 K, 30000 kPa	809
393.15 K, 35000 kPa	814
